Test results as given in the NIST ThermoML archive (doi:10.1016/j.jct.2016.09.030).

Experiment: xn = mol fraction of the nth substance listed
Details: 100 kPa, Liquid; for viscosity: Concentric cylinders viscometry; for mass density: Vibrating tube method

CCOC(=O)CCC(=O)OCC [diethyl butanedioate] + CC(C)CO
Details | mass density, 288.15 K [kg/m3] | mass density, 293.15 K [kg/m3] | mass density, 298.15 K [kg/m3] | mass density, 303.15 K [kg/m3] | viscosity, 288.15 K [mPa·s] | viscosity, 293.15 K [mPa·s] | viscosity, 298.15 K [mPa·s] | viscosity, 303.15 K [mPa·s]
x1 = 0.0999 | 844.65 | 840.5 | 836.33 | 832.13 | 3.284 | 2.816 | 2.443 | 2.135
x1 = 0.2 | 878.53 | 874.13 | 869.73 | 865.31 | 2.763 | 2.403 | 2.108 | 1.866
x1 = 0.3001 | 908.28 | 903.71 | 899.12 | 894.51 | 2.542 | 2.23 | 1.973 | 1.756
x1 = 0.4 | 934.67 | 929.94 | 925.2 | 920.45 | 2.473 | 2.177 | 1.931 | 1.73
x1 = 0.4999 | 958.02 | 953.16 | 948.31 | 943.44 | 2.477 | 2.186 | 1.947 | 1.747
x1 = 0.5999 | 978.97 | 974.02 | 969.07 | 964.11 | 2.546 | 2.249 | 2.004 | 1.802
x1 = 0.6999 | 997.81 | 992.78 | 987.75 | 982.72 | 2.625 | 2.32 | 2.073 | 1.864
x1 = 0.8 | 1014.88 | 1009.79 | 1004.7 | 999.6 | 2.774 | 2.45 | 2.184 | 1.964
x1 = 0.9 | 1030.48 | 1025.33 | 1020.18 | 1015.04 | 2.962 | 2.611 | 2.322 | 2.084
x1 = 1 | 1044.83 | 1039.63 | 1034.44 | 1029.25 | 3.195 | 2.807 | 2.491 | 2.229
